Measured values from patent US8252832B2, “Kinesin inhibitors as cancer therapeutics” (Novartis AG, priority 2007, dated 2012).
Read-outs that look alike come from different tables or passages of the source.

System: panel of cell lines and tumor explants
Assay: Soft agar (clonogenic) assay on cell lines and tumor explants
Format: cell-based, human
Parameters: key to Differential: panel average log(GI50) minus sample log(GI50); positive = more sensitive
Details: for Differential: average log(GI50) 0.236 minus log(GI50); for GI50: Homo sapiens
Experimental: Compound IIa was tested against a panel of cell lines and tumor explants in a soft agar assay as described in Fiebig, H. H., Maier, A., and Burger, A. M. (Clonogenic assay with established human tumour xenorafts: correlation of in vitro to in vivo activity as a basis for anticancer drug discovery, Eur. J. Cancer 40, 802-820 (2004).) Table 16 lists the type of cancer, the name of the sample, its GI50 (concentration needed to achieve 50% growth inhibition) value in the assay, the logarithm of the GI50 (log(GI50), and the relative sensitivity of each sample (Differential). The differential is calculated by subtracting the log(GI50) for each cell line from the average log(GI50) across the entire panel (0.236 in this case); a positive value indicates a sample that is more sensitive than average, whereas a negative value indicates a sample that is less sensitive than average.

CC(C)(C)[C@H](c1nc(-c2cc(F)ccc2F)cn1Cc1ccccc1)N(CC[C@H](N)CF)C(=O)CO [Compound IIa]
Differential (Bladder, sample 439): −0.764 | Differential (Bladder, sample 1036): 1.176 | Differential (Bladder, sample 1218): 0.530 | Differential (Bladder, sample 1228): 0.738 | Differential (Bladder, sample 1258): −0.996 | Differential (Bladder, sample 1352): 0.249 | Differential (Breast, sample 401): 0.486 | Differential (Breast, sample 449): 0.509 | Differential (Breast, sample 574): −0.764 | Differential (Breast, sample 583): 0.858 | Differential (Breast, sample 713): 0.849 | Differential (Breast, sample 857): −0.154 | Differential (Breast, sample 1162): 0.780 | Differential (Breast, sample 1322): 0.090 | Differential (Breast, sample 1384): −0.189 | Differential (Breast, sample 1398): 0.858 | Differential (Colorectal, sample 94LX): −1.054 | Differential (Colorectal, sample 158): −0.764 | Differential (Colorectal, sample 233): 0.860 | Differential (Colorectal, sample 243): −0.764 | Differential (Colorectal, sample 260): −0.764 | Differential (Colorectal, sample 268): −0.559 | Differential (Colorectal, sample 280): −0.764 | Differential (Colorectal, sample 504): 0.800 | Differential (Colorectal, sample 533): −0.007 | Differential (Colorectal, sample 609): −0.764 | Differential (Colorectal, sample 647): −0.764 | Differential (Colorectal, sample 676): −0.764 | Differential (Colorectal, sample 742): −0.036 | Differential (Colorectal, sample 975): −0.764 | Differential (Colorectal, sample 1034): 0.906 | Differential (Colorectal, sample 1044): 0.450 | Differential (Colorectal, sample 1103): 0.236 | Differential (Colorectal, sample 1297): −0.764 | Differential (Colorectal, sample 1299): −0.764 | Differential (Colorectal, sample 1729): −0.764 | Differential (Colorectal, sample 1753): −0.816 | Differential (Colorectal, sample 1783): 0.378 | Differential (Colorectal, sample 1784): −0.539 | Differential (Colorectal, sample 1788): −0.115 | Differential (Gastric, sample 209): −0.764 | Differential (Gastric, sample 214): −0.718 | Differential (Gastric, sample 1172): −0.764 | GI50 (22Rv1, Prostate, sample 22RV1, GI50 in nM, read-out: log(GI50) (converted)): 0.537 nM | GI50 (22Rv1, Prostate, sample 22RV1, read-out: GI50): 0.537 nM | GI50 (Bladder, sample 439, GI50 in nM, read-out: log(GI50) (converted)): ≥ 10 nM | GI50 (Bladder, sample 439, read-out: GI50): 10 nM | GI50 (Bladder, sample 1036, GI50 in nM, read-out: log(GI50) (converted)): 0.115 nM | GI50 (Bladder, sample 1036, read-out: GI50): 0.115 nM | GI50 (Bladder, sample 1218, GI50 in nM, read-out: log(GI50) (converted)): 0.509 nM | GI50 (Bladder, sample 1218, read-out: GI50): 0.509 nM | GI50 (Bladder, sample 1228, GI50 in nM, read-out: log(GI50) (converted)): 0.315 nM | GI50 (Bladder, sample 1228, read-out: GI50): 0.315 nM | GI50 (Bladder, sample 1258, GI50 in nM, read-out: log(GI50) (converted)): 17.1 nM | GI50 (Bladder, sample 1258, read-out: GI50): 17.1 nM | GI50 (Bladder, sample 1352, GI50 in nM, read-out: log(GI50) (converted)): 0.973 nM | GI50 (Bladder, sample 1352, read-out: GI50): 0.972 nM | GI50 (Breast, sample 401, GI50 in nM, read-out: log(GI50) (converted)): 0.564 nM | GI50 (Breast, sample 401, read-out: GI50): 0.563 nM | GI50 (Breast, sample 449, GI50 in nM, read-out: log(GI50) (converted)): 0.535 nM | GI50 (Breast, sample 449, read-out: GI50): 0.534 nM | GI50 (Breast, sample 574, GI50 in nM, read-out: log(GI50) (converted)): ≥ 10 nM | GI50 (Breast, sample 574, read-out: GI50): 10 nM | GI50 (Breast, sample 583, GI50 in nM, read-out: log(GI50) (converted)): 0.239 nM | GI50 (Breast, sample 583, read-out: GI50): 0.239 nM | GI50 (Breast, sample 713, GI50 in nM, read-out: log(GI50) (converted)): 0.244 nM | GI50 (Breast, sample 713, read-out: GI50): 0.244 nM | GI50 (Breast, sample 857, GI50 in nM, read-out: log(GI50) (converted)): 2.45 nM | GI50 (Breast, sample 857, read-out: GI50): 2.46 nM | GI50 (Breast, sample 1162, GI50 in nM, read-out: log(GI50) (converted)): 0.286 nM
